Values after ≈ are worked out from the molar mass of the structure shown.
Legend:
HT-29 = assay: Cytotoxicity against human HT29 cells after 7 days by MTT assay; assay type: functional; details: for EC50: Homo sapiens, HT-29, 168 h, read-out: ED50 (the source's name)
A549 = assay: Cytotoxicity against human A549 cells after 7 days by MTT assay; assay type: functional; details: for EC50: Homo sapiens, A549, 168 h, read-out: ED50 (the source's name)
MCF7 = assay: Cytotoxicity against human MCF7 cells after 7 days by MTT assay; assay type: functional; details: for EC50: Homo sapiens, MCF7, 168 h, read-out: ED50 (the source's name)
Artemia salina = assay: Toxicity to Artemia salina; assay type: organism-based; details: in vivo
A498 = assay: Cytotoxicity against human A498 cells after 7 days by MTT assay; assay type: functional; details: A498, 168 h, read-out: ED50 (the source's name)
MIA PaCa-2 = assay: Cytotoxicity against human MIAPaCa2 cells after 7 days by MTT assay; assay type: functional; details: MIA PaCa-2, 168 h, read-out: ED50 (the source's name)
PC-3 = assay: Cytotoxicity against human PC3 cells after 7 days by MTT assay; assay type: functional; details: PC-3, 168 h, read-out: ED50 (the source's name)

SMILES | ED50 (HT-29) | ED50 (A549) | ED50 (MCF7) | LC50 (Artemia salina) | EC50 (HT-29) | EC50 (A549) | EC50 (MCF7) | EC50 (A498) | EC50 (MIA PaCa-2) | EC50 (PC-3)
CCCCCCCCCC[C@H](O)[C@H]1CC[C@H]([C@H]2CC[C@H]([C@H](O)CCCCCCCCCCCCC3=C[C@H](C)OC3=O)O2)O1 [BULLANIN] | 4.77 ×10⁻¹⁴ ug/ml | 3.11 ×10⁻¹⁴ ug/ml | 3.22 ×10⁻¹⁴ ug/ml | 6 ×10⁻³ ppm |  |  |  |  |  | 
CCCCCCCCCC[C@@H](O)[C@H]1CC[C@H]([C@H]2CC[C@H]([C@H](O)CCCCCCCCCC[C@@H](O)CC3=C[C@H](C)OC3=O)O2)O1 [ASIMICIN] |  |  |  | 2.7 ×10⁻² ppm |  |  |  |  |  | 
CCCCCCCCCC[C@@H](O)[C@H]1CC[C@H]([C@H]2CC[C@H]([C@H](O)CCCC[C@H](O)CCCCC[C@@H](O)CC3=C[C@H](C)OC3=O)O2)O1 |  |  |  | 4.3 ×10⁻¹ ppm | 0.00758 µg/mL (≈ 0.0119 µM) | 0.673 µg/mL (≈ 1.05 µM) | 0.327 µg/mL (≈ 0.512 µM) | > 1 µg/mL | > 1 µg/mL | 0.527 µg/mL (≈ 0.825 µM)
COc1cccc2c1C(=O)c1c(O)c3c(c(O)c1C2=O)C[C@@](O)(C(=O)CO)C[C@@H]3O[C@H]1C[C@H](N)[C@H](O)[C@H](C)O1 [DOXORUBICIN] |  |  |  | 8 ×10⁻² ppm | 0.00428 µg/mL (≈ 0.00787 µM) | 0.00178 µg/mL (≈ 0.00327 µM) | 0.17 µg/mL (≈ 0.313 µM) | 0.00178 µg/mL (≈ 0.00327 µM) | 0.00243 µg/mL (≈ 0.00447 µM) | 0.0189 µg/mL (≈ 0.0348 µM)
CCCCCCCCCC[C@@H](O)[C@H]1CC[C@@H]([C@H]2CC[C@H]([C@H](O)CCCCCCCCCC[C@@H](O)CC3=C[C@H](C)OC3=O)O2)O1 [TRILOBACIN] | <1 ×10⁻¹² ug/ml | 8.02 ×10⁻⁴ ug/ml |  | 8.7 ×10⁻³ ppm |  |  | 0.339 µg/mL (≈ 0.544 µM) |  |  | 
CCCCCCCCCC[C@@H](O)[C@H]1CC[C@H]([C@H]2CC[C@H]([C@H](O)CCCC[C@H](O)CCCCCCCC3=C[C@H](C)OC3=O)O2)O1 [ASIMIN] | <1 ×10⁻¹² ug/ml | 7.99 ×10⁻⁹ ug/ml | 9.57 ×10⁻⁹ ug/ml | 4.6 ×10⁻³ ppm |  |  |  |  |  | 
CCCCCCCCCCC(O)C1CCC(C2CCC(C(O)CCCCCCCC[C@H](O)CC3=C[C@@H](C)OC3=O)O2)O1 (stereo partly drawn) [ASIMICIN] | <1 ×10⁻¹² ug/ml | 8.43 ×10⁻⁴ ug/ml |  |  |  |  | 0.852 µg/mL (≈ 1.43 µM) |  |  | 
CC[C@H](O)[C@H](O)CCCCCC[C@H](O)[C@H]1CC[C@H]([C@H]2CC[C@H]([C@H](O)CCCCCCCCCCCCC3=C[C@H](C)OC3=O)O2)O1 [BULLATETROCIN] | 3.32 ×10⁻⁵ ug/ml |  |  | 3.1 ×10⁻¹ ppm |  | 0.352 µg/mL (≈ 0.551 µM) | 0.497 µg/mL (≈ 0.778 µM) | > 1 µg/mL | > 1 µg/mL | > 1 µg/mL
CCCCCCCCCC[C@@H](O)[C@H]1CC[C@@H]([C@H]2CC[C@H]([C@H](O)CCCC[C@H](O)CCCCC[C@@H](O)CC3=C[C@H](C)OC3=O)O2)O1 |  | 1 ×10⁻⁸ ug/ml | 1.88 ×10⁻⁸ ug/ml | 2.6 ×10⁻¹ ppm | 1.39 µg/mL (≈ 2.18 µM) |  |  | 0.01 µg/mL (≈ 0.0157 µM) | 0.196 µg/mL (≈ 0.307 µM) | 0.378 µg/mL (≈ 0.592 µM)
CCCCCCCCCC[C@@H](O)[C@H]1CC[C@@H]([C@H]2CC[C@H]([C@H](O)CCC[C@H](O)CCCCCCCC3=C[C@H](C)OC3=O)O2)O1 [TRILOBIN] | 2.2 ×10⁻⁸ ug/ml | 5.71 ×10⁻¹² ug/ml | 2.95 ×10⁻¹² ug/ml | 9.7 ×10⁻³ ppm |  |  |  |  |  | 

Reference: ChEMBL document CHEMBL1158308, “Three new adjacent bis-tetrahydrofuran acetogenins with four hydroxyl groups from Asimina triloba” (J Nat Prod, 1996)
